Among the data in patent US8674118B2, “Compounds and methods for the treatment or prevention of flavivirus infections” (priority 2005, dated 2014) are IC50 values, retold here.

What is called IC50 is the concentration that gives 50% inhibition.

The structures appear in SMILES notation. Counter-ions that a name gives are not always drawn.

The experiment has as its system HCV RNA replication (replicon cell lines Huh-7, 5.2 and ET). Nature of the experiment: Cell-Based Luciferase Reporter HCV RNA Replication Assay. The following applies: Hepatitis C virus, Huh-7, 96 h, Huh-7, 5.2 or ET replicon cells, luciferase counts after 4 days incubation; read-out: IC50. A general note: A reporter such as luciferase makes a cellular process visible.
`CC1(C)CCC(c2cc(N(C(=O)[C@H]3CC[C@H](C)CC3)[C@H]3CC[C@H](F)CC3)c(C(=O)O)s2)CC1` [Compound 83, 5-(4,4-dimethyl-cyclohexyl)-3-[(trans-4-fluoro-cyclohexyl)-(trans-4-methyl-cyclohexanecarbonyl)-amino]-thiophene-2-carboxylic acid]: the half-maximal inhibitory concentration (IC50) is less than 5 µM. For the compound `CC1CCC(C(=O)N(c2cc(C3=CCCCC3)sc2C(=O)O)C2CCC3(CC2)CC(=O)N(C)C3)CC1` (stereo not drawn) [Compound 84, 5-cyclohex-1-enyl-3-[(trans-4-methyl-cyclohexanecarbonyl)-cis-(2-methyl-3-oxo-2-aza-spiro[4.5]dec-8-yl)-amino]-thiophene-2-carboxylic acid], the 50% inhibitory concentration (IC50) is less than 5 µM.

With `CC1CCC(C(=O)N(c2cc(C3CCC(=O)CC3)sc2C(=O)O)C2CCC(O)CC2)CC1` (stereo not drawn) [Compound 86, 3-[(4-trans-hydroxy-cyclohexyl)-(4-trans-methyl-cyclohexanecarbonyl)-amino]-5-(4-oxo-cyclohexyl)-thiophene-2-carboxylic acid], the IC50 was 5 to 25 µM. As for `CC1CCC(C(=O)N(c2cc(C3=CCCCC3)sc2C(=O)O)C2CCN3C(=O)CCC3C2)CC1` (stereo not drawn) [Compound 87, RS-5-cyclohex-1-enyl-3-[(4-trans-methyl-cyclohexanecarbonyl)-(3-oxo-octahydro-indolizin-7-yl)-amino]-thiophene-2-carboxylic acid], the figure is less than 5 µM; as for `CC1(C)CC=C(c2cc(N(C(=O)[C@H]3CC[C@H](C)CC3)[C@H]3CC[C@@H](n4cncn4)CC3)c(C(=O)O)s2)CC1` [Compound 94, 5-(4,4-dimethyl-cyclohex-1-enyl)-3-[(trans-4-methyl-cyclohexanecarbonyl)-(cis-4-[1,2,4]triazol-1-yl-cyclohexyl)-amino]-thiophene-2-carboxylic acid; hydrochloride], less than 5 µM. With `CC1(C)CC=C(c2cc(N(C(=O)[C@H]3CC[C@H](C)CC3)[C@H]3CC[C@H](n4cncn4)CC3)c(C(=O)O)s2)CC1` [Compound 95, 5-(4,4-dimethyl-cyclohex-1-enyl)-3-[(trans-4-methyl-cyclohexanecarbonyl)-(trans-4-[1,2,4]triazol-1-yl-cyclohexyl)-amino]-thiophene-2-carboxylic acid; hydrochloride], the IC50 was less than 5 µM. As for `C[C@H]1CC[C@H](C(=O)N(c2cc(C3=CCCCC3)sc2C(=O)O)C2CCN(c3cncnc3)CC2)CC1` [Compound 96, 5-cyclohex-1-enyl-3-[(trans-4-methyl-cyclohexanecarbonyl)-(1-pyrimidin-5-yl-piperidin-4-yl)-amino]-thiophene-2-carboxylic acid], the IC50 was less than 5 µM. As for `CC1(C)CCC(c2cc(N(C(=O)[C@H]3CC[C@H](C)CC3)C3COCOC3)c(C(=O)O)s2)CC1` [Compound 97, 5-(4,4-Dimethyl-cyclohexyl)-3-[[1,3]dioxan-5-yl-(trans-4-methyl-cyclohexanecarbonyl)-amino]-thiophene-2-carboxylic acid], the IC50 was less than 5 µM. As for `C[C@H]1CC[C@H](C(=O)N(c2cc(C3=CCCCC3)sc2C(=O)O)C2CCN(C=O)CC2)CC1` [Compound 98, 5-cyclohex-1-enyl-3-[(1-formyl-piperidin-4-yl)-(trans-4-methyl-cyclohexanecarbonyl)-amino]-thiophene-2-carboxylic acid], the IC50 is less than 5 µM. Consider `CC1CCC(C(=O)N(c2cc(C3=CCCCC3)sc2C(=O)O)C2CCC(C)(C#N)CC2)CC1` (stereo not drawn) [Compound 99, 3-[(cis-4-cyano-4-methyl-cyclohexyl)-(trans-4-methyl-cyclohexanecarbonyl)-amino]-5-cyclohex-1-enyl-thiophene-2-carboxylic acid], for which the concentration for half-maximal inhibition (IC50) was less than 5 µM. For the compound `CS(=O)(=O)N1CCC(N(c2cc(C3=CCCCC3)sc2C(=O)O)C(=O)[C@H]2CC[C@H](C)CC2)CC1` [Compound 101, 5-cyclohex-1-enyl-3-[(1-methanesulfonyl-piperidin-4-yl)-(trans-4-methyl-cyclohexanecarbonyl)-amino]-thiophene-2-carboxylic acid], the IC50 was less than 5 µM.
